The values below come from PMC7790953 (ACS chemical neuroscience, 2020).

In test [1] the target is 9B1. The format is binding, mouse. To be noted: for pKd: read-out: Kd as printed in text (9B1); for pKi: read-out: Ki (9B1), pH 7.4.
Another test concerns the target h9B1. The class given is binding. To be noted: for pKd: read-out: Kd as printed in text (h9B1); for pKi: read-out: Ki (h9B1), pH 7.4.
Test [2] relates to 9B1. To be noted: estimated in original report; cited from earlier work.
In another test the test system is Ab15. To be noted: ref SI Table S2; cited from earlier work.

pIC50, pKd, pKi: −log10 of the molar value. Entries after “also recorded” stand apart in the source; their conditions may differ.

For orientation: pKd means the negative decadic logarithm of the Kd, by convention in mol/L. The term pKi denotes the negative decadic logarithm of the Ki, by convention in mol/L. For `CC(=O)O[C@H]1C=C[C@H]2[C@H]3Cc4ccc(O)c5c4[C@@]2(CCN3C)[C@H]1O5` [6-MAM, 6-monoacetylmorphine], at 9B1 [1], the negative-log Kd (pKd) is 8.32 and the pKi is 8.32. Further, on h9B1, the pKd was 7.92 and the pKi is 7.92.

For the compound `CC(=O)Oc1ccc2c3c1O[C@H]1[C@@H](OC(C)=O)C=C[C@H]4[C@@H](C2)N(C)CC[C@@]341` [heroin], the pKd on 9B1 [1] is 8.89; on h9B1, 7.93. Moreover, the results for the pKi on 9B1 [1] and at h9B1 were 8.89 and 7.93, respectively.

For the compound `COc1ccc2c3c1O[C@H]1C(=O)CC[C@H]4[C@@H](C2)N(C)CC[C@]314` [hydrocodone], on 9B1 [1], the pKd was 8.09 and the pKi was 8.09. On h9B1, the pKd was 7.41 and the pKi is 7.41.

Consider `CN1CC[C@]23c4c5ccc(O)c4O[C@H]2[C@@H](O)C=C[C@H]3[C@H]1C5` [morphine], for which, in the test with 9B1 [2], the “Binding constant of 9B1 with morphine” value is ~ 10^9 M^−1.

In the case of `C=CCN1CC[C@]23c4c5ccc(O)c4O[C@H]2C(=O)CC[C@@]3(O)[C@H]1C5` [naloxone], the “Binding with 9B1 in initial screening” value with 9B1 [1] is reported as “did not show significant binding affinities; also recorded: without significant binding”. Also, in the test with h9B1, the “Binding with h9B1 in initial screening” value is “did not show significant binding affinities; also recorded: without significant binding”.

The term pIC50 denotes the negative decadic logarithm of the IC50, by convention in mol/L. Consider `O=C1CC[C@@]2(O)[C@H]3Cc4ccc(O)c5c4[C@@]2(CCN3CC2CC2)[C@H]1O5` [naltrexone], for which, in the test with Ab15, the pIC50 was 6.51. Further, in the test with 9B1 [1], the “Binding with 9B1 in initial screening” value was “did not show significant binding affinities; also recorded: without significant binding” and the pKi was under 5.00. In the test on h9B1, the “Binding with h9B1 in initial screening” value is on record as “did not show significant binding affinities; also recorded: without significant binding” and the negative logarithm of the Ki (pKi) is under 5.00.

Consider `COc1ccc2c3c1O[C@H]1C(=O)CC[C@@]4(O)[C@@H](C2)N(C)CC[C@]314` [oxycodone], for which the pKi is 5.57 on 9B1 [1] and 5.16 on h9B1.

As for buprenorphine, the “Binding with 9B1 in initial screening” value with 9B1 [1] was “did not show significant binding affinities; also recorded: without significant binding”. The “Binding with h9B1 in initial screening” value in the test on h9B1 is on record as “did not show significant binding affinities; also recorded: without significant binding”.
